What was measured:
Design in all cases: scale not given: the % may be the effect or the level left
[1] = biological target: Calcium/calmodulin-dependent protein kinase type II subunit beta (Homo sapiens) (UniProt Q13554); assay: Inhibition of human CAMK2b assessed as enzyme activity at 1 uM using KKALRRQETVDAL as substrate preincubated for 20 mins followed by [gamma-33P]-ATP addition and measured after 120 mins by radiometric Hot-SpotSM Kinase assay relative to control
[2] = biological target: T1, Kinase suppressor of Ras 2 (Homo sapiens) (UniProt Q6VAB6); assay: Inhibition of human KSR2 assessed as enzyme activity at 1 uM using KRREILSRRPSYR as substrate preincubated for 20 mins followed by [gamma-33P]-ATP addition and measured after 120 mins by radiometric Hot-SpotSM Kinase assay relative to control
T1 sequence (whole entry): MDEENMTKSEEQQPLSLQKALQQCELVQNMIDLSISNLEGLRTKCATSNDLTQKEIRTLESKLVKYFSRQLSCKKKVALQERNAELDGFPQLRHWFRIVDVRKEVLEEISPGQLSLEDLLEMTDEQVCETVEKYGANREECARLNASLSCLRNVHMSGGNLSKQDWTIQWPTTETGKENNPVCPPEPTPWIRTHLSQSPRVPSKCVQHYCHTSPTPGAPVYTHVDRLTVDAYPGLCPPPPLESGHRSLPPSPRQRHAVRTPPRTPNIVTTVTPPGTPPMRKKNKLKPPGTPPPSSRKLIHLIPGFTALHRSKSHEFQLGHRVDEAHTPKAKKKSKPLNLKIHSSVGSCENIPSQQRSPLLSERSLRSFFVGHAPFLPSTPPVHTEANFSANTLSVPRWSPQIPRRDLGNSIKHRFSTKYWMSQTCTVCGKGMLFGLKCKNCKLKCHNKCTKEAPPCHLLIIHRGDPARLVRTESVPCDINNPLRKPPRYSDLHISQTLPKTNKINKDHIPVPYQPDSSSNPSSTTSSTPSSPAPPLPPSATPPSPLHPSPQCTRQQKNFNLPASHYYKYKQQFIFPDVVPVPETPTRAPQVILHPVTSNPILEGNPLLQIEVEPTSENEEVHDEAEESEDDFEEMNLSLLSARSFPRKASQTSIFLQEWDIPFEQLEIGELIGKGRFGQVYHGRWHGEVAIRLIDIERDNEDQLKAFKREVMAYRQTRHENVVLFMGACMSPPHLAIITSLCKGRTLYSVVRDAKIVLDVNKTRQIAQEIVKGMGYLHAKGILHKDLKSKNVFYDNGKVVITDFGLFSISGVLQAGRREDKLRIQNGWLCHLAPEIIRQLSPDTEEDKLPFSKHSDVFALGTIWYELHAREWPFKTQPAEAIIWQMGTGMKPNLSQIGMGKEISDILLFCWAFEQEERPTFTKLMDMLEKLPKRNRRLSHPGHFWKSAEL

[3] = biological target: T2, Serine/threonine-protein kinase Nek9 (Homo sapiens) (UniProt Q8TD19); assay: Inhibition of human NEK9 assessed as enzyme activity at 1 uM using myelin basic protein as substrate preincubated for 20 mins followed by [gamma-33P]-ATP addition and measured after 120 mins by radiometric Hot-SpotSM Kinase assay relative to control
T2 sequence (whole entry): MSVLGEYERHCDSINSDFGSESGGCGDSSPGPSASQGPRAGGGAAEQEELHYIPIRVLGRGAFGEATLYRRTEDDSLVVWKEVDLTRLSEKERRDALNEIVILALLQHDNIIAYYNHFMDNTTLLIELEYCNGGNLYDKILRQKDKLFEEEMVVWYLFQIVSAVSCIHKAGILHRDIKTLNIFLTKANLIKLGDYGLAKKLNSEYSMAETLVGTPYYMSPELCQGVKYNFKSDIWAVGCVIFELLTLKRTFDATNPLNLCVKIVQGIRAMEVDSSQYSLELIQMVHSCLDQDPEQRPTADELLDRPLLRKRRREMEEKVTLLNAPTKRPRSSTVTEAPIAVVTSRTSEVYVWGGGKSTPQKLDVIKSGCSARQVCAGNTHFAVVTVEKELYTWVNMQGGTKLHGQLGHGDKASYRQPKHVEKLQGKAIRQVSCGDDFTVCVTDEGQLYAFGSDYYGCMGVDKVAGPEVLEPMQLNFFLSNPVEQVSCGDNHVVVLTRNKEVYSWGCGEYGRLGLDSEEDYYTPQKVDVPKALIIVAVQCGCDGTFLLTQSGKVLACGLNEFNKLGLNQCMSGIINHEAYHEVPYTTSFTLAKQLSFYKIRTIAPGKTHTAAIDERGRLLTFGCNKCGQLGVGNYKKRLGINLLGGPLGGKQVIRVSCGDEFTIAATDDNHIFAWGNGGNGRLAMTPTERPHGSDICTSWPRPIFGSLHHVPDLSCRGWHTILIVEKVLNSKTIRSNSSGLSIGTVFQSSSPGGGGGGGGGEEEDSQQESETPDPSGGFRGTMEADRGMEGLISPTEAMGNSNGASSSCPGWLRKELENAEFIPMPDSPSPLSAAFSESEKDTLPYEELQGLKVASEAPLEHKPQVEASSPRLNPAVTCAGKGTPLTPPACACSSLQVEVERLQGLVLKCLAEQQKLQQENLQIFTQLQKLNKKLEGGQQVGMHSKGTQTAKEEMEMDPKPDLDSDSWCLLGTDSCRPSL

[4] = biological target: T3, Dual specificity mitogen-activated protein kinase kinase 7 (Homo sapiens) (UniProt O14733); assay: Inhibition of human MKK7 assessed as enzyme activity at 1 uM using JNK (K55M) as substrate preincubated for 20 mins followed by [gamma-33P]-ATP addition and measured after 120 mins by radiometric Hot-SpotSM Kinase assay relative to control
T3 sequence (whole entry): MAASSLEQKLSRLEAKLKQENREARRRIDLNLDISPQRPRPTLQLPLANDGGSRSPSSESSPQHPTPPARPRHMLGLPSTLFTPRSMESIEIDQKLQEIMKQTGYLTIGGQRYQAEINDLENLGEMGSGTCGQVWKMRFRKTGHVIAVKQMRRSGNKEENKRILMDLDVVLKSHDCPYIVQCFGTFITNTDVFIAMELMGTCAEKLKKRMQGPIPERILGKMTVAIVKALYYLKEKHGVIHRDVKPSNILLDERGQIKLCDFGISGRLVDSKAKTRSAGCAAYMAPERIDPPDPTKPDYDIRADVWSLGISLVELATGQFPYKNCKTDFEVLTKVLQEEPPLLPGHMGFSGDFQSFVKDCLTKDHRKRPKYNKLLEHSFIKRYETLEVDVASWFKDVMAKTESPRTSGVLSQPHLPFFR

[5] = biological target: Dual specificity mitogen-activated protein kinase kinase 1 (Homo sapiens) (UniProt Q02750); assay: Inhibition of human MEK1 assessed as enzyme activity at 1 uM using ERK2 (K52R) as substrate preincubated for 20 mins followed by [gamma-33P]-ATP addition and measured after 120 mins by radiometric Hot-SpotSM Kinase assay relative to control
Sequence of Dual specificity mitogen-activated protein kinase kinase 1 (Homo sapiens) (Q02750 whole entry): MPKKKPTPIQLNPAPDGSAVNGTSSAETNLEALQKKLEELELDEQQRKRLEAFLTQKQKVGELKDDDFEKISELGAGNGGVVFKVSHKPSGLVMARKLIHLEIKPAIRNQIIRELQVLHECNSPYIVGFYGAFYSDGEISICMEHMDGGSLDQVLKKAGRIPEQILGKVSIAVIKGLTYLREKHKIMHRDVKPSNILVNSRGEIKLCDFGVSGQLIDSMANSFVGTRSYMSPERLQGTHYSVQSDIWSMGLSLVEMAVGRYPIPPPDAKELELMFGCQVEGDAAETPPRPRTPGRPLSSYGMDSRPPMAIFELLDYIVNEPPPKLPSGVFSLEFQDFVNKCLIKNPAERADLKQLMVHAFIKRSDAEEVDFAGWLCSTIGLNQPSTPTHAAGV

Sequence of Calcium/calmodulin-dependent protein kinase type II subunit beta (Homo sapiens) (Q13554 whole entry): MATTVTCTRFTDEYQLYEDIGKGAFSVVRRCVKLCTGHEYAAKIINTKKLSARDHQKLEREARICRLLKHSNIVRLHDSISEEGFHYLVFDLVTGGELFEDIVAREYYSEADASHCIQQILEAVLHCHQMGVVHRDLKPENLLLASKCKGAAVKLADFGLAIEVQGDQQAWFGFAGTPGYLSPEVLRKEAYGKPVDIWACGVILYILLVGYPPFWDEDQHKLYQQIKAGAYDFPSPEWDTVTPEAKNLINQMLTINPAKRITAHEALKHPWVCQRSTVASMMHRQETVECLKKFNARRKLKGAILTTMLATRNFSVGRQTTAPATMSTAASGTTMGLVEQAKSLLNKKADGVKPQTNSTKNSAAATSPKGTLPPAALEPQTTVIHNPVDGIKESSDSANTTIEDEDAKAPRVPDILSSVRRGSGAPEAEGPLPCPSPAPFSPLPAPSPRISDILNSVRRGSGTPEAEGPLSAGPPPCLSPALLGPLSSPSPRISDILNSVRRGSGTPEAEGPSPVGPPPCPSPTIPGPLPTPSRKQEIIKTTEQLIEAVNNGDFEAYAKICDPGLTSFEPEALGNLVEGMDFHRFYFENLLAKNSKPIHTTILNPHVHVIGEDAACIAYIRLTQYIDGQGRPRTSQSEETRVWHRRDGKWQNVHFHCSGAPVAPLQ

Row | SMILES | Activity [1] [%] | Activity [2] [%] | Activity [3] [%] | Activity [4] [%] | Activity [5] [%]
1 | CC[C@H](Nc1ncnc2[nH]cnc12)c1nc2cccc(F)c2c(=O)n1-c1ccccc1 | 96.2 | 95 | 95.1 | 95.1 | 100
2 | C[C@H](Nc1ncnc2nc[nH]c12)c1cc2cccc(Cl)c2c(=O)n1-c1ccccc1 | 95.8 | 91.4 | 94.8 | 96 | 97.2
3 | CC(C)Oc1ccc(-c2nn([C@@H](C)c3oc4ccc(F)cc4c(=O)c3-c3cccc(F)c3)c3ncnc(N)c23)cc1F [UMBRALISIB] | 92.3 | 96.2 | 91.6 | 96.9 | 94.4
